Reference: patent US10550143B2, “C,O-spiro aryl glycoside compounds, preparation therefor and use thereof” (SHANGHAI INSTITUTE OF MATERIA MEDICA, CHINESE ACADEMY OF …, priority 2015, dated 2020)

Assays:
Format in all cases: in vivo, mouse
C57BL/6J mice = experiment: Acute administration of A28 at multiple doses, oral glucose tolerance of C57BL/6J mice; settings: for AUC0-2 h / Average hypoglycemic rate % (0-2 h) / Blood glucose level 15 min / Blood glucose level 30 min / Blood glucose level 60 min / Blood glucose level 90 min / Blood glucose level 120 min / Blood glucose level 0: C57BL/6J mice OGTT; for Blood glucose level 0: before sugar
Description: (1) Experimental Methods: 56 C57BL/6J mice were selected and starved for 6 h, took water freely, then randomly divided into 7 groups according to body weight and random blood glucose, 8 rats in each group. […] Average hypoglycemic rate %=(AUC0-120 min of solvent control group−AUC0-120 min of administration group)/(AUC0-120 min of solvent control group−AUC0-120 min of blank control group)*100%

db/db mice [1] = experiment: Chronic administration, fasting blood glucose in db/db mice; settings: for fasting blood glucose Pre: before administration; for Hypoglycemic rate % week 1 / Hypoglycemic rate % week 2 / Hypoglycemic rate % week 3 / Hypoglycemic rate % week 4: fasting blood glucose
Description: (§1) Oral gavage administrated, daily dose volume was 10 mL/kg, administered once daily. Administration time was 9: 00-10:00 daily, and the administration period was 5 weeks.
The random blood glucose of mice in the normal control group, model control group, test substance administration group and positive control group were determined on the 7th, 14th, 21st, 28th day (9: 00-10:00) every week after the first administration, and food was removed and after 6 hours of starvation, the fasting blood glucose in each group was measured. Free drinking during the hunger process. The rate of decrease of blood glucose was calculated according to the following formula: Average hypoglycemic rate %=(Blood glucose of model control group−Blood glucose of administration group)/Model control group×100%

db/db mice [2] = experiment: Acute administration at multiple doses, random blood glucose in db/db mice; settings: for Blood glucose level 0 h: before administration
Description: (1) 127 db/db mice (half male and half female) entered the animal laboratory of the institute at 7 weeks of age and were grouped at 10 weeks of age. Random blood glucose and random body weight of all db/db mice were determined at 9:00 am, and then fasted for 6 hours (free drinking). Fasting blood glucose and fasting body weight were determined, and blood was collected (10 μl EDTA+20 μl tail blood, centrifugated to collect supernatant) to determine the insulin content. […] The db/db mice were once orally administered at a dose of 10 mL/kg. Blood glucose levels were measured before administration, and at 1 h, 2 h, 3 h, 4 h, 6 h after administration, and the administration times and body weights were recorded. Mice took food and water freely during the experiment.
Average hypoglycemic rate %=(model control group−administration group)/(model control group−blank control group)*100%

db/db mice [3] = experiment: Chronic administration, glycosylated hemoglobin level in db/db mice; settings: for HbA1c Decline rate %: vs vehicle
Description: as §1
In the end of the above experiment, the orbital blood was taken from animals of each group and divided into two tubes, one was centrifuged to take blood cells for the determination of glycated hemoglobin content, the other tube was added with 25 μL EDTA in advance, centrifuged and the supernatant was taken to determine the indexes such as triglyceride (TG), total cholesterol (TC), total protein (TP), albumin, low density lipoprotein (LDL), high density lipoprotein (HDL), non-esterified fatty acid (NEFA) and so on.

## CCc1ccc(Cc2cc3c(cc2Cl)CO[C@]32O[C@H](C)[C@@H](O)[C@H](O)[C@H]2O)s1 [Example A28, (1S,3′R,4′S,5′S,6′R)-6′-methyl-6-((5-ethylthienyl)-2-methyl)-5-chloro-3′,4′,5′,6′-tetrahydro-3H-spiro[isobenzofuran-1,2′-pyran]-3′,4′,5′-triol]
C57BL/6J mice; oral 0.3 mg/kg
  AUC0-2 h: 21.6 ± 1.5 mmol·h/L
  Average hypoglycemic rate % (0-2 h): 2.0%
  Blood glucose level 15 min: 14.2 ± 2.1 mmol/L
  Blood glucose level 30 min: 13.0 ± 1.7 mmol/L
  Blood glucose level 60 min: 11.2 ± 0.8 mmol/L
  Blood glucose level 90 min: 9.1 ± 1.0 mmol/L
  Blood glucose level 120 min: 8.3 ± 1.0 mmol/L
  Blood glucose level 0: 7.5 ± 0.4 mmol/L
C57BL/6J mice; oral 1 mg/kg
  AUC0-2 h: 19.8 ± 1.0 mmol·h/L
  Average hypoglycemic rate % (0-2 h): 10.0%
  Blood glucose level 15 min: 12.5 ± 1.6 mmol/L
  Blood glucose level 30 min: 12.0 ± 0.8 mmol/L
  Blood glucose level 60 min: 9.9 ± 0.9 mmol/L
  Blood glucose level 90 min: 8.7 ± 0.7 mmol/L
  Blood glucose level 120 min: 7.9 ± 0.7 mmol/L
  Blood glucose level 0: 7.1 ± 0.6 mmol/L
C57BL/6J mice; oral 3 mg/kg
  AUC0-2 h: 18.5 ± 0.6 mmol·h/L
  Average hypoglycemic rate % (0-2 h): 16.2%
  Blood glucose level 15 min: 10.4 ± 1.0 mmol/L
  Blood glucose level 30 min: 11.3 ± 1.1 mmol/L
  Blood glucose level 60 min: 9.5 ± 0.7 mmol/L
  Blood glucose level 90 min: 8.4 ± 0.7 mmol/L
  Blood glucose level 120 min: 7.4 ± 0.6 mmol/L
  Blood glucose level 0: 6.4 ± 0.7 mmol/L
C57BL/6J mice; C57BL/6J mice, once administrated
  effective dose, reduction of blood glucose AUC within 2 h after sugar: 1 mg/kg
db/db mice [1]; 0.3 mg/kg once daily oral
  fasting blood glucose week 1: 10.6 ± 0.9 mmol/L
  fasting blood glucose week 2: 10.5 ± 0.8 mmol/L
  fasting blood glucose week 3: 12.3 ± 0.9 mmol/L
  fasting blood glucose week 4: 12.6 ± 1.2 mmol/L
  fasting blood glucose Pre: 13.2 ± 0.7 mmol/L
  Hypoglycemic rate % week 1: 21.4%
  Hypoglycemic rate % week 2: 52.3%
  Hypoglycemic rate % week 3: 30.6%
  Hypoglycemic rate % week 4: 21.1%
db/db mice [1]; 1 mg/kg once daily oral
  fasting blood glucose week 1: 8.7 ± 0.6 mmol/L
  fasting blood glucose week 2: 9.4 ± 0.9 mmol/L
  fasting blood glucose week 3: 10.4 ± 1.0 mmol/L
  fasting blood glucose week 4: 10.0 ± 0.7 mmol/L
  fasting blood glucose Pre: 13.2 ± 1.3 mmol/L
  Hypoglycemic rate % week 1: 35.0%
  Hypoglycemic rate % week 2: 57.2%
  Hypoglycemic rate % week 3: 41.5%
  Hypoglycemic rate % week 4: 37.8%
db/db mice [1]; 3 mg/kg once daily oral
  fasting blood glucose week 1: 8.6 ± 0.5 mmol/L
  fasting blood glucose week 2: 6.8 ± 0.6 mmol/L
  fasting blood glucose week 3: 8.1 ± 0.5 mmol/L
  fasting blood glucose week 4: 8.5 ± 0.6 mmol/L
  fasting blood glucose Pre: 13.5 ± 1.5 mmol/L
  Hypoglycemic rate % week 1: 36.2%
  Hypoglycemic rate % week 2: 69.2%
  Hypoglycemic rate % week 3: 54.2%
  Hypoglycemic rate % week 4: 46.8%
db/db mice [1]; 10 mg/kg once daily oral
  fasting blood glucose week 1: 7.6 ± 0.6 mmol/L
  fasting blood glucose week 2: 6.9 ± 0.5 mmol/L
  fasting blood glucose week 3: 7.2 ± 0.6 mmol/L
  fasting blood glucose week 4: 7.3 ± 0.5 mmol/L
  fasting blood glucose Pre: 13.8 ± 1.2 mmol/L
  Hypoglycemic rate % week 1: 43.2%
  Hypoglycemic rate % week 2: 68.9%
  Hypoglycemic rate % week 3: 59.5%
  Hypoglycemic rate % week 4: 54.5%
db/db mice [1]; four weeks chronic administration
  effective dose, fasting blood glucose, random blood glucose and HbA1c reduction: 0.3 mg/kg
db/db mice [2]; single administration, within 6 h
  effective dose, reduction of blood glucose levels: 3 mg/kg
db/db mice [2]; single oral 0.3 mg/kg
  AUC0-6 h: 103.7 ± 7.7 mmol·h/L
  Blood glucose level 1 h: 19.4 ± 1.2 mmol/L
  Blood glucose level 2 h: 18.0 ± 0.9 mmol/L
  Blood glucose level 3 h: 17.2 ± 1.5 mmol/L
  Blood glucose level 4 h: 16.5 ± 1.5 mmol/L
  Blood glucose level 6 h: 15.4 ± 1.7 mmol/L
  Blood glucose level 0 h: 17.9 ± 1.5 mmol/L
db/db mice [2]; single oral 1 mg/kg
  AUC0-6 h: 87.3 ± 4.8 mmol·h/L
  Blood glucose level 1 h: 15.9 ± 0.7 mmol/L
  Blood glucose level 2 h: 13.7 ± 0.6 mmol/L
  Blood glucose level 3 h: 14.6 ± 0.9 mmol/L
  Blood glucose level 4 h: 14.9 ± 1.1 mmol/L
  Blood glucose level 6 h: 12.3 ± 0.9 mmol/L
  Blood glucose level 0 h: 16.8 ± 1.2 mmol/L
db/db mice [2]; single oral 3 mg/kg
  AUC0-6 h: 62.7 ± 3.3 mmol·h/L
  Blood glucose level 1 h: 11.2 ± 1.2 mmol/L
  Blood glucose level 2 h: 9.1 ± 0.5 mmol/L
  Blood glucose level 3 h: 10.2 ± 0.7 mmol/L
  Blood glucose level 4 h: 8.7 ± 0.6 mmol/L
  Blood glucose level 6 h: 9.7 ± 0.8 mmol/L
  Blood glucose level 0 h: 18.7 ± 1.2 mmol/L
db/db mice [2]; single oral 10 mg/kg
  AUC0-6 h: 47.2 ± 1.7 mmol·h/L
  Blood glucose level 1 h: 8.2 ± 0.4 mmol/L
  Blood glucose level 2 h: 6.0 ± 0.6 mmol/L
  Blood glucose level 3 h: 7.1 ± 0.5 mmol/L
  Blood glucose level 4 h: 7.2 ± 0.6 mmol/L
  Blood glucose level 6 h: 6.1 ± 0.4 mmol/L
  Blood glucose level 0 h: 18.3 ± 1.7 mmol/L
db/db mice [3]; dose 0.3 mg/kg
  HbA1c (%): 5.83 ± 0.36 %
  HbA1c Decline rate %: 23.2%
db/db mice [3]; dose 1 mg/kg
  HbA1c (%): 6.02 ± 0.30 %
  HbA1c Decline rate %: 20.7%
db/db mice [3]; dose 3 mg/kg
  HbA1c (%): 4.95 ± 0.37 %
  HbA1c Decline rate %: 34.8%
db/db mice [3]; dose 10 mg/kg
  HbA1c (%): 4.50 ± 0.27 %
  HbA1c Decline rate %: 40.7%
